Data published in ChEMBL document CHEMBL4418298, “Cyp8b1 and uses thereof in therapeutic and diagnostic methods” (2014).
pIC50: −log10 of the molar value.

Each molecule was assayed against T1, 7-alpha-hydroxycholest-4-en-3-one 12-alpha-hydroxylase (Homo sapiens, UniProt Q9UNU6) (assay: Inhibition of CYP8B1 in human liver microsomes using D7-7alpha-hydroxy-4-cholesten-3-one as substrate preincubated for 20 mins followed by substrate addition in presence of NADPH by UPLC-ESI-MS/MS analysis).
T1 sequence (Q9UNU6 whole entry): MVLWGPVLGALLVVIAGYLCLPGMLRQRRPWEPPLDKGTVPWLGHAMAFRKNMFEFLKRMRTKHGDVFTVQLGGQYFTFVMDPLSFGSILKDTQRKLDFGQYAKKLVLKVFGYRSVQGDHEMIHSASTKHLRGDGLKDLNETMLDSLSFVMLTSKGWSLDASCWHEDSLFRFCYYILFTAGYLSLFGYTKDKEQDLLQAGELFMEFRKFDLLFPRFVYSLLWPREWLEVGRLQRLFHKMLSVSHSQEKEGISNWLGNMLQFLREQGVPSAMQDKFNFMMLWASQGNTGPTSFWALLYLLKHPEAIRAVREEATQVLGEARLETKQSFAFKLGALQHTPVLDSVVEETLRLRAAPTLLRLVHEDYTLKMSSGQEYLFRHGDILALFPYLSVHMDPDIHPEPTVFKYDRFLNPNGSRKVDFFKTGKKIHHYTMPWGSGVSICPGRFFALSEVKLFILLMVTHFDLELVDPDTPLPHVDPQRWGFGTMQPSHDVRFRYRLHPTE

Row | Compound | pIC50
1 | Clc1ccc(COC(Cn2ccnc2)c2ccc(Cl)cc2Cl)c(Cl)c1 (stereo not drawn) [MICONAZOLE] | 5.82
2 | CC(C)CCC[C@@H](C)[C@H]1CC[C@H]2[C@@H]3[C@H](O)C[C@@H]4C[C@H](O)CC[C@]4(C)[C@H]3C[C@H](O)[C@]12C | 5.12
3 | CCC(C)n1ncn(-c2ccc(N3CCN(c4ccc(OC[C@H]5CO[C@](Cn6cncn6)(c6ccc(Cl)cc6Cl)O5)cc4)CC3)cc2)c1=O (stereo partly drawn) [ITRACONAZOLE] | 5.33
4 | Clc1ccc(COC(Cn2ccnc2)c2ccc(Cl)cc2Cl)cc1 (stereo not drawn) [ECONAZOLE] | 6.51
5 | N[C@@H]1C[C@H]1c1ccccc1.N[C@H]1C[C@@H]1c1ccccc1 (racemic) [TRANYLCYPROMINE] | 5.11
6 | CC(=O)N1CCN(c2ccc(OC[C@H]3CO[C@](Cn4ccnc4)(c4ccc(Cl)cc4Cl)O3)cc2)CC1 [KETOCONAZOLE] | 5.66
7 | CC[C@@H]([C@H](C)O)n1ncn(-c2ccc(N3CCN(c4ccc(OC[C@@H]5CO[C@@](Cn6cncn6)(c6ccc(F)cc6F)C5)cc4)CC3)cc2)c1=O [POSACONAZOLE] | 5.42
8 | Clc1ccccc1C(c1ccccc1)(c1ccccc1)n1ccnc1 [CLOTRIMAZOLE] | 6.10
